Earlier results on one molecule are cited in US20040265230A1, “Compositions and methods for diagnosing and treating colon cancers” (priority 2003, published 2004).

The test system of data set [1] is lymphoid, myeloid, colon, and prostate cancer cells. As to conditions: prostate xenografts in nude mice.
Another data set has as its system tumor cells. As to conditions: read-out: concentration causing 50% growth inhibition of tumor cells.

For `CN1CC[C@H](c2c(O)cc(O)c3c(=O)cc(-c4ccccc4Cl)oc23)[C@H](O)C1` [Flavopiridol], in data set [1], the “inhibition of cancer cells grown in vivo as tumor xenografts” value was “inhibits”. The IC50 in the data set on tumor cells was 0.06 µM.
